This note sets out measurements from EP0719267B1, “SECOND MESSENGER CELL SIGNALING INHIBITORS” (CELL THERAPEUTICS, INC., priority 1993, dated 1994).

Common to all, as to assay type: cell-based
Series [1] concerns anti-CD3-stimulated mouse splenocytes. In words: Cytokine release from anti-CD3-stimulated splenocytes (ELISA). As to conditions: 1 µM, overnight. The method, then:
Figures 59A, 59B and 59C report assay results investigating the effect of inventive compound no. 45 on cytokine release from anti-CD3-stimulated mouse splenocytes. […] 45 (1 µM). Concentrations chosen were approximately equal to IC50 values. The supernatants were harvested and assayed for cytokine levels using commercial ELISAs for proliferation. Anti-CD3 stimulated release of IL-2, IFN-γ and IL-4 (background levels for media control were negligible). […] However, compound no. […] Compound no.

For series [2], the system named is human foreskin fibroblasts, HS68. In words: Prostaglandin E2 release from IL-1α-stimulated fibroblasts. As to conditions: 100 pg/ml IL-1α, 24 hours. The method, then:
Figure 61 illustrates that inventive compound no. […] Cells were stimulated with 100 pg/ml IL-1α. Inventive compound no. 45 was added 1 hour prior to stimulation. Supernatants were harvested 24 hours later and levels of PGE2 were analyzed by commercial immunoassay. The results are reported in figure 61 and confirm no effect on PGE2 release.

Series [3] has as its system normal human bone marrow stromal cells. In words: Cytotoxicity in normal bone marrow stromal cells (vital dye uptake). As to conditions: much higher concentrations than cytotoxic to tumor cells. The method, then: Human bone marrow stromal cells (1 x 10^4 cells/well) were plated in 96 well plates in McCoy's medium with serum and incubated overnight. Different dilutions of inventive compound no. 50 were added and viable cell counts made by vital dye uptake.

Series [4] deals with human umbilical vein endothelial cell line (HUVEC). In words: VEGF-induced proliferation of HUVEC. The procedure: This example illustrates an investigation of inhibitory effects of compound no. 58 on Vascular Endothelial Growth Factor (VEGF)-induced proliferation in a human umbilical vein endothelial cell line (HUVEC). In this assay procedure, cells were grown in reduced serum (0.5% fetal calf serum) for 24 hours prior to stimulating with various concentrations of VEGF. […] Compound no.
As illustrated in figures 67A and 67B, inventive compound no. 58 inhibited VEGF-induced proliferation in HUVEC and EGF-induced proliferation in Swiss/3T3 cells, respectively. Procedurally, HUVEC were placed in 0.5% serum containing medium prior to stimulation with various concentrations of VEGF, with or without inventive compound no. 58 (5 µM). Twenty four hours later the cells were pulsed with ^3H-TdR and 4 hours later harvested and counted by scintillation. The IC50 for inhibition was approximately 50-100 nM. Swiss 3T3 cells were stimulated with 20 ng/ml EGF and 24 hours later harvested and counted by scintillation.

The test system of series [5] is HUVEC. In words: VEGF-induced HUVEC migration, Matrigel invasion assay system. The settings on record: Homo sapiens, 50 ng/ml VEGF. An excerpt:
58. HUVEC were placed in a Matrigel invasion assay system (Becton Dickinson) and VEGF-induced migration assessed with or without varying concentrations of inventive compound no. 58.

Molecules are shown by their SMILES. pIC50: −log10 of the molar value.

For the compound `CCCCCCCCNCC(O)CCCCCCCCCn1c(=O)c2c(ncn2C)n(C)c1=O` (centres unmarked) [compound no. 45], in series [1], the IFN-γ release result was “drastically inhibited IFN-γ release”, the IL-2 release result was “did not significantly inhibit IL-2 release” and the IL-4 release result is listed as “only partially inhibits IL-4 release”. For the same compound, in series [2], the “prostaglandin E2 release” value is “did not have an effect on prostaglandin E2 release”.
Consider `CCCCCCCCCCCCNCC(O)CCCCCCCCCn1c(=O)c2c(ncn2C)n(C)c1=O` (centres unmarked) [compound no. 50, 1-(11-Dodecylamino-10-hydroxyundecyl)-3,7-dmethylxanthine], for which the cytotoxic activity result in series [3] is reported as “lacks cytotoxic activity in normal human bone marrow stromal cells”.
Turning to `COc1cc(CNCC(O)CCCCCCCCCn2c(=O)c3c(ncn3C)n(C)c2=O)cc(OC)c1OC` (centres unmarked) [compound no. 58, 1-[11-(3,4,5-Trimethoxybenzylamino)-10-hydroxyundecyl]-3,7-dimethylxanthine], the “inhibition of VEGF-induced proliferation” value in series [4] (5 µM) is “inhibited VEGF-induced proliferation at all concentrations of VEGF tested”. For the same compound, the pIC50 in series [4] (Homo sapiens, HUVEC, VEGF, 0.5% serum) is 7.00 to 7.30; in series [5], 6.70 to 7.00.
